The numbers were not newly measured in patent US20130281394A1, “Chemosensory Receptor Ligand-Based Therapies” (ELCELYX THERAPEUTICS, INC., priority 2010, published 2013), which cites them from elsewhere.

Marks after values point to notes of the source that are not given here.

The target in the series is T1, sweet receptor (Homo sapiens, UniProt Q7RTX0+Q8TE23).
T1 sequence (Q8TE23 20-839): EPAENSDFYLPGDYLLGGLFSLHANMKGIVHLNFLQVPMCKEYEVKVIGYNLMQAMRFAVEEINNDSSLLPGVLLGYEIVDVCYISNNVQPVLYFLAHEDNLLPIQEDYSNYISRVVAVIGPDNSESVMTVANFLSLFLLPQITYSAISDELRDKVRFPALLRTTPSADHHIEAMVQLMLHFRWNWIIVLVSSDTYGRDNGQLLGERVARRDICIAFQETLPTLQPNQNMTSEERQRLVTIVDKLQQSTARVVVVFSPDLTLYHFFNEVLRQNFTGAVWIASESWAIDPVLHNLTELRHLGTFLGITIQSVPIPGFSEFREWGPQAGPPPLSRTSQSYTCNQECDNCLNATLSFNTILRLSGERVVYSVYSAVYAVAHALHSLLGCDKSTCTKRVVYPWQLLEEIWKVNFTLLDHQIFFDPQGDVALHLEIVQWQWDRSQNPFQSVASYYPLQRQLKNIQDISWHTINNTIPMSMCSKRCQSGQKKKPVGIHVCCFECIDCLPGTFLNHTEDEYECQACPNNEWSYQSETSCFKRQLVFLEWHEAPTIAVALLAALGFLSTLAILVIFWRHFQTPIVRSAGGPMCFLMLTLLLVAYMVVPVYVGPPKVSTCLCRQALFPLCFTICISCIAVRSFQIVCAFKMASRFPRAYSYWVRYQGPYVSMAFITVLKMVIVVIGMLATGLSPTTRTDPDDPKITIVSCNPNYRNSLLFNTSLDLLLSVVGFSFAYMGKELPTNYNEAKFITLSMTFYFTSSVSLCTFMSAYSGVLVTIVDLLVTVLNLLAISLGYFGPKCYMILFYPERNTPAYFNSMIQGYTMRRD
T1 sequence (Q7RTX0 21-852): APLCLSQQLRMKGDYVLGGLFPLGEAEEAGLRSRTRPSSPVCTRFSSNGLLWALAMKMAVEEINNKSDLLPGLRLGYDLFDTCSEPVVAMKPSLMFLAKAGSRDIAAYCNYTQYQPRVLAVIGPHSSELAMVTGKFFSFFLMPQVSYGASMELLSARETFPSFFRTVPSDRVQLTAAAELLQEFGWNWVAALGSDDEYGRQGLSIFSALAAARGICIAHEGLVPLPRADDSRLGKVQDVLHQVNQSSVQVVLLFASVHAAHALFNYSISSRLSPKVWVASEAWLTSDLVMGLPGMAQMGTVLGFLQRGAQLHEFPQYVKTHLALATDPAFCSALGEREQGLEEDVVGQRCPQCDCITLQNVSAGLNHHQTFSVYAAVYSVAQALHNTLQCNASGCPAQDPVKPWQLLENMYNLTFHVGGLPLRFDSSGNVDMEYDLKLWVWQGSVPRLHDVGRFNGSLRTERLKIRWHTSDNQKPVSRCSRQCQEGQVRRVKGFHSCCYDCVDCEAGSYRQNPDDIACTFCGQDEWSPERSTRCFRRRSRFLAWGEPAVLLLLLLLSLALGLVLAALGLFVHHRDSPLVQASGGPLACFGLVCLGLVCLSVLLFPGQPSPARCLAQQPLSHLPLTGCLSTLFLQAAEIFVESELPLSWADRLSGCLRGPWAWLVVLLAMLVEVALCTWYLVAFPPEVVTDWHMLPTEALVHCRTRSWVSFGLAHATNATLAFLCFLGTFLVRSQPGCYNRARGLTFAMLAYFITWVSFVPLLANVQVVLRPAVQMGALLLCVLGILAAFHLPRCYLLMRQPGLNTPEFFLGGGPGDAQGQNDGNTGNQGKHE
The settings on record: relative sweetness on a weight comparison basis to sucrose (= 1.0); ranges: varied with the concentration of sucrose.
Regarding “4β,11α-Dimethyl-1,2,3,4,5,10-hexahydro-fluorene-4α,6α-dicarboxylic acid”, the Sweetness/potency was 1,300-1,800^d.

`COc1c(O)cc2c(c1O)C(=O)[C@H](OC(C)=O)[C@@H](c1ccc(O)c(O)c1)O2` [(2R,3R)-2,3-Dihydro-5,7,3′,4′-tetrahydroxy-6-methoxy-3-O-acetylflavonol]: the Sweetness/potency is recorded as 25.

As for `COc1c(O)cc2c(c1O)C(=O)[C@H](O)[C@@H](c1ccc(O)c(O)c1)O2` [(2R,3R)-2,3-Dihydro-5,7,3′,4′-tetrahydroxy-6-methoxyflavonol], the Sweetness/potency was 15.

Consider `COc1c(O)cc2c(c1O)C(=O)[C@H](OC(C)=O)[C@@H](c1ccc(O)cc1)O2` [(2R,3R)-2,3-Dihydro-5,7,4′-trihydroxy-6-methoxy-3-O-acetylflavonol], for which the Sweetness/potency is on record as 20.

With `CC(=O)O[C@H]1C(=O)c2c(O)cc(O)cc2O[C@@H]1c1ccc(O)c(O)c1` [(2R,3R)-Dihydroquercetin 3-O-acetate], the Sweetness/potency is recorded as 80.

In the case of `CC(C)=CCC[C@](C)(O)[C@@H]1CCC(C)=CC1=O` [(+)-Hernandulcin], the Sweetness/potency is reported as 1,500.

Regarding `CC1=CC[C@@H]([C@@H](C)[C@H]2CC[C@@]3(C)[C@@H]4CC[C@H]5[C@](C)(C(=O)O)[C@@H](O[C@@H]6O[C@H](CO)[C@@H](O)[C@H](O)[C@H]6O)CC[C@@]56C[C@@]46CC[C@]23C)OC1=O` [Abrusoside A], the Sweetness/potency was 30.

As for `COC(=O)[C@H]1O[C@@H](O[C@H]2[C@H](O[C@H]3CC[C@]45C[C@]46CC[C@]4(C)[C@@H]([C@H](C)[C@@H]7CC=C(C)C(=O)O7)CC[C@@]4(C)[C@@H]6CC[C@H]5[C@]3(C)C(=O)O)O[C@H](CO)[C@@H](O)[C@@H]2O)[C@H](O)[C@@H](O)[C@@H]1O` [Abrusoside B], the Sweetness/potency is on record as 100.

`CC1=CC[C@@H]([C@@H](C)[C@H]2CC[C@@]3(C)[C@@H]4CC[C@H]5[C@](C)(C(=O)O)[C@@H](O[C@@H]6O[C@H](CO)[C@@H](O)[C@H](O)[C@H]6O[C@@H]6O[C@H](CO)[C@@H](O)[C@H](O)[C@H]6O)CC[C@@]56C[C@@]46CC[C@]23C)OC1=O` [Abrusoside C]: the Sweetness/potency is 50.

Turning to `CC1=CC[C@@H]([C@@H](C)[C@H]2CC[C@@]3(C)[C@@H]4CC[C@H]5[C@](C)(C(=O)O)[C@@H](O[C@@H]6O[C@H](CO)[C@@H](O)[C@H](O)[C@H]6O[C@@H]6O[C@H](C(=O)O)[C@@H](O)[C@H](O)[C@H]6O)CC[C@@]56C[C@@]46CC[C@]23C)OC1=O` [Abrusoside D], the Sweetness/potency is on record as 75.

Consider `CC1(C)C[C@H]2C3=CC[C@@H]4[C@@]5(C)CC[C@H](O[C@@H]6O[C@H](CO[C@@H]7OC[C@H](O)[C@H](O)[C@H]7O[C@@H]7OC[C@@H](O)[C@H](O)[C@H]7O)[C@@H](O)[C@H](O)[C@H]6O)C(C)(C)[C@@H]5CC[C@@]4(C)[C@]3(C)C[C@@H](O)[C@@]23C[C@@H]1OC3=O` [Albiziasaponin A], for which the Sweetness/potency is 5.

`CC1(C(=O)O)CCC2(C)CCC3(C)C(=CC(=O)C4C5(C)CCC(OC6OC(C(=O)O)C(O)C(O)C6OC6OCC(O)(CO)C6O)C(C)(C)C5CCC43C)C2C1` (stereo not shown) [Apioglycyrrhizin]: the Sweetness/potency is recorded as 300.

Consider `CC1(C)[C@@H](O[C@H]2O[C@H](C(=O)O)[C@@H](O)[C@H](O)[C@H]2O[C@@H]2OC[C@H](O)[C@H](O)[C@H]2O)CC[C@]2(C)[C@H]3C(=O)C=C4[C@@H]5C[C@@](C)(C(=O)O)CC[C@]5(C)CC[C@@]4(C)[C@]3(C)CC[C@@H]12` [Araboglycyrrhizin], for which the Sweetness/potency is on record as 150.

Turning to `C/C(=C\CC[C@@H](C)[C@H]1CC[C@@]2(C)[C@@H]3CC=C4[C@@H](CC[C@H](O[C@@H]5O[C@H](CO)[C@@H](O)[C@H](O)[C@H]5O)C4(C)C)[C@]3(C)[C@H](O)C[C@]12C)CO[C@@H]1O[C@H](CO[C@@H]2O[C@H](CO)[C@@H](O)[C@H](O)[C@H]2O)[C@@H](O)[C@H](O)[C@H]1O` [Carnosifloside VI], the Sweetness/potency was 77.

In the case of `COc1ccc(C2Oc3cc(O)cc(O)c3C(=O)C2OC(C)=O)cc1O` (stereo not shown) [Dihydroquercetin 3-O-acetate 4′-methyl ether], the Sweetness/potency is 400.

Consider `C=C1C[C@@]23CC[C@H]4[C@@](C)(CCC[C@@]4(C)C(=O)O[C@@H]4O[C@H](CO)[C@@H](O)[C@H](O)[C@H]4O)[C@@H]2CC[C@]1(O[C@@H]1O[C@H](CO)[C@@H](O)[C@H](O)[C@H]1O[C@@H]1O[C@@H](C)[C@H](O)[C@@H](O)[C@H]1O)C3` [Dulcoside A], for which the Sweetness/potency is reported as 30.

Regarding `C/C(=C\CO)CCC1=C(C=O)CC(OC2OCC(O)C(O)C2O)C2C(C)(CO)CCCC12C` (stereo not shown) [Gaudichaudioside A], the Sweetness/potency is reported as 55.

Regarding `CC1(C)[C@@H](O[C@H]2O[C@H](C(=O)O)[C@@H](O)[C@H](O)[C@H]2O[C@@H]2O[C@H](C(=O)O)[C@@H](O)[C@H](O)[C@H]2O)CC[C@]2(C)[C@H]3C(=O)C=C4[C@@H]5C[C@@](C)(C(=O)O)CC[C@]5(C)CC[C@@]4(C)[C@]3(C)CC[C@@H]12` [Glycyrrhizin], the Sweetness/potency is recorded as 93-170^d.

Regarding `Oc1cc2c(cc1O)[C@@H]1c3ccc(O)c(O)c3OC[C@]1(O)C2` [Hematoxylin], the Sweetness/potency is 120.

As to `C[C@H](CC[C@@H](O[C@@H]1O[C@H](CO)[C@@H](O)[C@H](O)[C@H]1O[C@@H]1O[C@H](CO)[C@@H](O)[C@H](O)[C@H]1O)C(C)(C)O)[C@H]1CC[C@@]2(C)[C@H]3CC=C4[C@@H](CC[C@H](O[C@@H]5O[C@H](CO[C@@H]6O[C@H](CO)[C@@H](O)[C@H](O)[C@H]6O)[C@@H](O)[C@H](O)[C@H]5O)C4(C)C)[C@]3(C)[C@H](O)C[C@]12C` [Mogroside IV], the Sweetness/potency is 233-392^d.

Regarding `C[C@H](CC[C@@H](O[C@@H]1O[C@H](CO[C@@H]2O[C@H](CO)[C@@H](O)[C@H](O)[C@H]2O)[C@@H](O)[C@H](O)[C@H]1O[C@@H]1O[C@H](CO)[C@@H](O)[C@H](O)[C@H]1O)C(C)(C)O)[C@H]1CC[C@@]2(C)[C@@H]3CC=C4[C@@H](CC[C@H](O[C@@H]5O[C@H](CO[C@@H]6O[C@H](CO)[C@@H](O)[C@H](O)[C@H]6O)[C@@H](O)[C@H](O)[C@H]5O)C4(C)C)[C@]3(C)[C@H](O)C[C@]12C` [Mogroside V], the Sweetness/potency is listed as 250-425^d.

For `N[C@@H](C[C@@](O)(Cc1c[nH]c2ccccc12)C(=O)O)C(=O)O` [Monatin], the Sweetness/potency is 1,200-1,400^d.

Turning to `C/C(=C\CC/C(C)=C/CO[C@@H]1O[C@H](CO)[C@@H](O)[C@H](O[C@@H]2O[C@@H](C)[C@H](O)[C@@H](O)[C@H]2O)[C@H]1O[C@@H]1O[C@@H](C)[C@H](O)[C@@H](O)[C@H]1O)CC/C=C(\C)CO[C@@H]1O[C@H](CO)[C@@H](O)[C@H](O[C@@H]2O[C@@H](C)[C@H](O)[C@@H](O)[C@H]2O)[C@H]1O[C@@H]1O[C@@H](C)[C@H](O)[C@@H](O)[C@H]1O` [Mukurozioside IIb], the Sweetness/potency entry is given as “ca. 1”.

`C[C@@H]1O[C@@H](O[C@H]2[C@H](Oc3cc(O)c(C(=O)CCc4ccc(O)cc4)c(O)c3)O[C@H](CO)[C@@H](O)[C@@H]2O)[C@H](O)[C@H](O)[C@H]1O` [Naringin dihydrochalcone]: the Sweetness/potency was 300.

Consider `COc1ccc(CCC(=O)c2c(O)cc(O[C@@H]3O[C@H](CO)[C@@H](O)[C@H](O)[C@H]3O[C@@H]3O[C@@H](C)[C@H](O)[C@@H](O)[C@H]3O)cc2O)cc1O` [Neohesperidin dihydrochalcone], for which the Sweetness/potency was 1,000.
